Legend:
[1] = molecular target: T1, RXRα (Homo sapiens, UniProt P19793); assay: Retinoid activation assay, RXRα (Schneider SL-3 cells, luciferase reporter); format: cell-based; conditions: read-out: Activation EC50 RXR α
T1 sequence (P19793 1-462): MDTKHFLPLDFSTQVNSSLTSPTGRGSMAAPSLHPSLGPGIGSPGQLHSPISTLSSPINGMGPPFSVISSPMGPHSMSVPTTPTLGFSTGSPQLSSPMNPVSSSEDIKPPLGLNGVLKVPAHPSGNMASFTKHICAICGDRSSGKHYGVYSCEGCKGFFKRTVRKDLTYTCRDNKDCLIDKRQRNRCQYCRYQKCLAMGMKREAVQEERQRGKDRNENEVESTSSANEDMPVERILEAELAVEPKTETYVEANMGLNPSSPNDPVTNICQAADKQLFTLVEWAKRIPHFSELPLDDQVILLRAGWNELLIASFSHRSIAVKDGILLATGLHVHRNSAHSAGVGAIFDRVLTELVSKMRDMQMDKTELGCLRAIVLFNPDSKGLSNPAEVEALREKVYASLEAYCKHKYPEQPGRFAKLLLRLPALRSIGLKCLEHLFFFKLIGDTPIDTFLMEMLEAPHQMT
Description: (§1) Full length RXR cDNA is used for transfection. As reporter system, the luciferase gene is used in a construct with three copies of a RXR response element from rat CRBP gene, (formerly RARE from betaRAR gene), fused to alcoholdehydrogenase gene promoter in the plasmid pGL2-basic. Schneider SL-3 cells from Drosophila are transiently transfected 3-4 h before the experiment by the Ca-phosphate-DNA coprecipitation method. […] At the end of the incubation, the cell supernatants are assayed for luciferase activity. Results are given as EC50 (nM), the concentration leading to half-maximal activation.

[2] = molecular target: T2, PPARγ/RXRα Heterodimer (Homo sapiens, UniProt P19793); assay: PPARγ/RXRα heterodimer activation (transactivation) assay; format: cell-based
T2 construct: co-transfected with plasmids expressing the full length RXR heteropartner receptor; expressed in transfected cells
T2 sequence (P19793 1-462): T1 sequence (P19793 1-462)
T2 sequence (P37231 1-505 partner): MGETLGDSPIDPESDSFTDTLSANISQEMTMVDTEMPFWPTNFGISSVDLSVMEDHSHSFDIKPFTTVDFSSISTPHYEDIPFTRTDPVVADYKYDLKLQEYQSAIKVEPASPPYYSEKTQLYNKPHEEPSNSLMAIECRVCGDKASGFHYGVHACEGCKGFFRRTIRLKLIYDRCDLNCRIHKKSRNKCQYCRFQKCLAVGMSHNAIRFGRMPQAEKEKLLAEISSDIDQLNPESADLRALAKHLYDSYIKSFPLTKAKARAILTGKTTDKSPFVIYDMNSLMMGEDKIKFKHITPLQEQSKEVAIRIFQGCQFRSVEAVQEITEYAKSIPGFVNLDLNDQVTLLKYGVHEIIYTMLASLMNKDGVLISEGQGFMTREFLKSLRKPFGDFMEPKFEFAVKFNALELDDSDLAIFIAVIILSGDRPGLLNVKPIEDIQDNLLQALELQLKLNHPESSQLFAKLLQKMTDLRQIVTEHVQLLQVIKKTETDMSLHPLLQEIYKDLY
Text: (§2) Nuclear hormone receptor (NHR) ligand dependent transcriptional transactivation assay.
Heterodimer reporter assays are potentially more important selection criteria for synthetic agonistic NHR ligands as they embody a more natural situation. Basically plasmids expressing the recombinant full length NHR are co-transfected with plasmids expressing the full length RXR heteropartner receptor and a reporter plasmid containing several copies of the natural responsive elements for the respective NHR driving the luciferase reporter gene.

[3] = molecular target: T3, RXRγ (Homo sapiens, UniProt P48443); assay: Retinoid activation assay, RXRγ (Schneider SL-3 cells, luciferase reporter); format: cell-based; conditions: read-out: Activation EC50 RXR γ
T3 sequence (P48443 1-463): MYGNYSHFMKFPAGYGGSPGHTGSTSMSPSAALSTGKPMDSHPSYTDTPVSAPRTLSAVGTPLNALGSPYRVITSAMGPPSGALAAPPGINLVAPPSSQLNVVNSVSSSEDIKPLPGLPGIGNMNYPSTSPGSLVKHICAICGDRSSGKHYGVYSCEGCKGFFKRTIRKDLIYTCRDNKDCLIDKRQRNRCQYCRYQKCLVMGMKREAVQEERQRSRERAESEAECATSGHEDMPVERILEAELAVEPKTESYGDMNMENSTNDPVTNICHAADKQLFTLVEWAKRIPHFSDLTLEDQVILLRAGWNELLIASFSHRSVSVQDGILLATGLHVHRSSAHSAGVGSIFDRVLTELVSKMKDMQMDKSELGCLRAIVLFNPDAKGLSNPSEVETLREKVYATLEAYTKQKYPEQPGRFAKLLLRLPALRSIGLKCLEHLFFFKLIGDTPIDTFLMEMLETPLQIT
Description: as §1

[4] = molecular target: T4, RXRβ (Homo sapiens, UniProt P28702); assay: Retinoid activation assay, RXRβ (Schneider SL-3 cells, luciferase reporter); format: cell-based; conditions: read-out: Activation EC50 RXR β
T4 construct: Full length RXR cDNA is used for transfection; expressed in transfected cells; host or cells: Schneider SL-3 cells (Drosophila)
T4 sequence (P28702 1-533): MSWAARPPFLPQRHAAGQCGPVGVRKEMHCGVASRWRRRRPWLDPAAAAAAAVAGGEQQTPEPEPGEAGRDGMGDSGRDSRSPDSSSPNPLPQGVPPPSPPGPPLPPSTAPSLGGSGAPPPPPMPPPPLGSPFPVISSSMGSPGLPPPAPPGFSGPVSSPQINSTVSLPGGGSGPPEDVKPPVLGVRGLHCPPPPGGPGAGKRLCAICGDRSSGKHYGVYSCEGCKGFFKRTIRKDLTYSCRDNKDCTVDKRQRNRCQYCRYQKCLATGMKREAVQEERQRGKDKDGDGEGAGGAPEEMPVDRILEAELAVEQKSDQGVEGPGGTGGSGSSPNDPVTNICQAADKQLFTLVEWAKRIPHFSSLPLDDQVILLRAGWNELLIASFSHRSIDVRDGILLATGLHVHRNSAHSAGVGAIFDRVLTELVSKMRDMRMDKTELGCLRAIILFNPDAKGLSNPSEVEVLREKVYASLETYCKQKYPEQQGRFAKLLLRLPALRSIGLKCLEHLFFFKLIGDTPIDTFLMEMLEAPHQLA
Description: as §1

[5] = molecular target: T3, RXRγ; assay: Retinoid binding assay, RXRγ; design: made in house; host or cells: E. coli; conditions: [3H] 9-cis retinoic acid 20 nM; read-out: Binding Affinity IC50 RXR γ
Text: (§3) The DEF domains of RAR's and the full length RXR's, expressed in E.coli, are used to measure competitive retinoid binding. […] 9-cis retinoic acid (for RXR's), respectively. […] Separation of bound from free radioactivity is achieved by charcoal/dextran (RAR's) or by desalting columns (RXR's). […] Retinoid Activation Assays

[6] = molecular target: T5, RXRα Homodimer (Homo sapiens, UniProt P19793); assay: RXRα homodimer activation (transactivation) assay; format: cell-based
T5 construct: expressed in transfected cells; host or cells: mammalian cells (BHK21, CV1, etc)
T5 sequence (P19793 1-462): T1 sequence (P19793 1-462)
Text: as §2
This secondary in vitro functional assay to characterize hits from the primary ligand binding screens is a GAL4-LBD transactivation assay. The Gal4-LBD protein consists of an in frame fusion of the transcription factor galactose 4 DNA binding domain from S.cerevisiae with the ligand binding domain (LBD) of a particular NHR. Briefly, a plasmid construct expressing the recombinant chimeric receptor is co-transfected into mammalian cells (BHK21, CV1, etc) with a luciferase reporter plasmid containing several copies in tandem of the GAL4 binding sites (promoter recognition elements) upstream from the minimal promoter driving the luciferase gene. The transfected cells are treated with compounds for 12-24 hours, lysates are produced and assayed for luciferase activity and normalized to internal standards such as GH, growth hormone or SEAP, secreted alkaline phosphatase. Ligand binding stabilizes the LBD conformation that recruits endogenous co-factors that mediate eventually the increased transcriptional activity of the luciferase reporter gene. By comparing the activation profile of a reference ligand or a natural ligand, the EC50 values for agonistic activity of a particular ligand can be measured. The extent of activation that can be measured is indicative of a partial, respectively full agonistic activity of a ligand. […]

[7] = molecular target: T1, RXRα; assay: Retinoid binding assay, RXRα; design: made in house; host or cells: E. coli; conditions: [3H] 9-cis retinoic acid 20 nM; read-out: Binding Affinity IC50 RXR α
Text: as §3

[8] = molecular target: T6, RARα (Homo sapiens, UniProt P10276); assay: Retinoid binding assay, RARα; design: The DEF domains of RAR's and the full length RXR's, expressed in E.coli; made in house; host or cells: E. coli; conditions: read-out: Binding Affinity IC50 RAR α
T6 sequence (P10276 183-417 limits assumed): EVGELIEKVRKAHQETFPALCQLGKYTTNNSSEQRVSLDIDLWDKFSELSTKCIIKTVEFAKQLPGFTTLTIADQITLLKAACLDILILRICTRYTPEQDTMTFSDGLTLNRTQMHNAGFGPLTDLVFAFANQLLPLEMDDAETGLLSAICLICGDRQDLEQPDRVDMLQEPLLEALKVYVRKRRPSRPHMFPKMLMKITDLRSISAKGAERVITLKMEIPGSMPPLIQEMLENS
Text: as §3

[9] = molecular target: T7, RARγ (Homo sapiens, UniProt P13631); assay: Retinoid binding assay, RARγ; conditions: read-out: Binding Affinity IC50 RAR γ
T7 construct: The DEF domains of RAR's and the full length RXR's, expressed in E.coli; made in house; host or cells: E. coli
T7 sequence (P13631 185-419 limits assumed): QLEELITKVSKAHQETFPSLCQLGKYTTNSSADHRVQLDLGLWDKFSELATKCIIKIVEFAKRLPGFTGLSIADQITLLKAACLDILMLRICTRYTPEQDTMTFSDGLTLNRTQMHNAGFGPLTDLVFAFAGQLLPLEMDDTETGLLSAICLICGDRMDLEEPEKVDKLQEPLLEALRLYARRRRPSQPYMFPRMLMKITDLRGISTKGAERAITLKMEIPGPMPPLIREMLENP
Text: as §3

[10] = molecular target: T8, RARβ (Homo sapiens, UniProt P10826); assay: Retinoid binding assay, RARβ; design: The DEF domains of RAR's and the full length RXR's, expressed in E.coli; made in house; host or cells: E. coli; conditions: read-out: Binding Affinity IC50 RAR β
T8 sequence (P10826 183-417 limits assumed): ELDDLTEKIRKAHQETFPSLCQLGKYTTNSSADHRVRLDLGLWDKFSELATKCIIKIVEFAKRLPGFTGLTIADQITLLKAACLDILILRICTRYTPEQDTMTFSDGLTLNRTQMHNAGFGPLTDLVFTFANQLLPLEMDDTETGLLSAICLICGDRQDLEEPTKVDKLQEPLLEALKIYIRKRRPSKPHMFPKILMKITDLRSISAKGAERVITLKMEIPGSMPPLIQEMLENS
Text: as §3

| SMILES | EC50 [1] [nM] | EC50 [2] [nM] | EC50 [3] [nM] | EC50 [4] [nM] | IC50 [5] [nM] | EC50 [6] [nM] | IC50 [7] [nM] | IC50 [8] [nM] | IC50 [9] [nM] | IC50 [10] [nM] |
| --- | --- | --- | --- | --- | --- | --- | --- | --- | --- | --- |
| CCc1cc2c(cc1\C(C)=C/C=C/C(C)=C/C(=O)O)CCCC2C (racemic) [Compound 11, (2E,4E,6Z)-(RS)-7-(3-Ethyl-5-methyl-5,6,7,8-tetrahydro-naphthalen-2-yl)-3-methyl-octa-2,4,6-trienoic acid] | 2.1 | 10 | 37 | 17 | 56 | 2 | 65 |  |  |  |
| CCCOc1c([C@@H]2C[C@@H]2/C=C/C(C)=C/C(=O)O)cc(C(C)(C)C)cc1C(C)(C)C (racemic) [Compound 20, (2E,4E)-5-[2-(3,5-Di-tert-butyl-2-propoxy-phenyl)-cyclopropyl]-3-methyl-penta-2,4-dienoic acid] | ≥ 10000 | > 10000 | ≥ 10000 |  | 71 | > 10000 | 52 |  |  |  |
| CCCOc1cc2c(cc1[C@@H]1C[C@@H]1/C=C/C(C)=C/C(=O)O)C(C)(C)CCC2(C)C (racemic) [Compound 22, (2E,4E)-3-Methyl-5-[(1RS,2RS)-2-(5,5,8,8-tetramethyl-3-propoxy-5,6,7,8-tetrahydro-naphthalen-2-yl)-cyclopropyl]-penta-2,4-dienoic acid] | > 10000 | > 30 | > 10000 | > 10000 | 700 | > 10000 | 300 |  |  |  |
| CC(/C=C/[C@@H]1C[C@@H]1c1ccc2c(c1)C(C)(C)CCC2(C)C)=C\C(=O)O (stereo in doubt) [Compound 10, (2E,4E)-3-Methyl-5-[(1S,2S)-2-(5,5,8,8-tetramethyl-5,6,7,8-tetrahydro-naphthalen-2-yl)-cyclopropyl]-penta-2,4-dienoic acid] | 2.6 | 6 | 65 | 28 | 122 | 2.6 | 110 |  |  |  |
| CCCCCCCOc1c(\C(C)=C/C=C/C(C)=C/C(=O)O)cc(C(C)C)cc1C(C)C [Compound 19, (2E,4E,6Z)-7-(2-Heptyloxy-3,5-diisopropyl-phenyl)-3-methyl-octa-2,4,6-trienoic acid] | ≥ 10000 | > 10000 |  |  | 19 | > 10000 | 9 |  |  |  |
| CCCOc1cc2c(cc1\C(C)=C/C=C/C(C)=C/C(=O)O)C(C)(C)CCC2(C)C [Compound 23, (2E,4E,6Z)-3-Methyl-7-(5,5,8,8-tetramethyl-3-propoxy-5,6,7,8-tetrahydro-naphthalen-2-yl)-octa-2,4,6-trienoic acid] |  |  | > 10000 | > 10000 | 68 |  |  | 3100 | 2800 | 3500 |

— US20080255206A1, “Rxr Agonists and Antagonists, Alone or in Combination with Ppar Ligands, in the Treatment of Metabolic and Cardiovascular Diseases” (priority 2005, published 2008)
